“And” between values parts separate entries of the source, which are not always exact repeats. Equal values may be shown once. Inconclusive results and toxic doses are left out. Rule as the data show it: active = T/C of 150% or more; inactive = T/C below 125%.
Tested on: L1210 leukemia ip in BDF1 mice, survival T/C
Experiment: NCI In Vivo Anticancer Drug Screen. Data for tumor model L1210 Leukemia (intraperitoneal) in B6D2F1 (BDF1) mice
Details: endpoint: mean survival time, higher = longer survival
Method in brief: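 Ratio derived from survival: compound-dosed mice over vehicle-dosed mice, all bearing a transplantable tumor.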

[1] = dose: 100.0 mg/kg/injection, schedule: Q01DX009 (ip), vehicle: Klucel (hydroxypropylcellulose) (HPC)
[2] = dose: 200.0 mg/kg/injection, schedule: Q01DX009 (ip), vehicle: Klucel (hydroxypropylcellulose) (HPC)
[3] = dose: 100.0 mg/kg/injection, schedule: Q01DX009 (ip), vehicle: saline
[4] = dose: 200.0 mg/kg/injection, schedule: Q01DX009 (ip), vehicle: saline
[5] = dose: 100.0 mg/kg/injection, schedule: Q04DX003 (ip), vehicle: saline with Tween-80
[6] = dose: 200.0 mg/kg/injection, schedule: Q04DX003 (ip), vehicle: saline with Tween-80
[7] = dose: 100.0 mg/kg/injection, schedule: Q04DX002 (ip), vehicle: saline with Tween-80
[8] = dose: 200.0 mg/kg/injection, schedule: Q04DX002 (ip), vehicle: saline with Tween-80
[9] = dose: 100.0 mg/kg/injection, schedule: Q01DX001 (ip), vehicle: saline
[10] = dose: 200.0 mg/kg/injection, schedule: Q01DX001 (ip), vehicle: saline
[11] = dose: 400.0 mg/kg/injection, schedule: Q01DX001 (ip), vehicle: saline
[12] = dose: 400.0 mg/kg/injection, schedule: Q01DX009 (ip), vehicle: Klucel (hydroxypropylcellulose) (HPC)
[13] = dose: 25.0 mg/kg/injection, schedule: Q01DX009 (ip), vehicle: saline with Tween-80
[14] = dose: 50.0 mg/kg/injection, schedule: Q01DX009 (ip), vehicle: saline with Tween-80
[15] = dose: 100.0 mg/kg/injection, schedule: Q01DX009 (ip), vehicle: saline with Tween-80
[16] = dose: 50.0 mg/kg/injection, schedule: Q01DX001 (ip), vehicle: saline
[17] = dose: 150.0 mg/kg/injection, schedule: Q01DX009 (ip), vehicle: Klucel (hydroxypropylcellulose) (HPC)
[18] = dose: 100.0 mg/kg/injection, schedule: Q04DX003 (ip), vehicle: Klucel (hydroxypropylcellulose) (HPC)
[19] = dose: 200.0 mg/kg/injection, schedule: Q04DX003 (ip), vehicle: Klucel (hydroxypropylcellulose) (HPC)
[20] = dose: 400.0 mg/kg/injection, schedule: Q04DX003 (ip), vehicle: Klucel (hydroxypropylcellulose) (HPC)

Measured: T/C

Cc1ccc(C(C)C)cc1NC(=O)Nc1ccccc1F
inactive: [1] 91 % of control | [2] 86 % of control

Nc1ccc(S(=O)(=O)Nc2cnc3ccccc3n2)cc1
inactive: dose: 50.0 mg/kg/injection, schedule: Q01DX009 (ip), vehicle: saline 99 % of control | [3] 92 % of control | dose: 100.0 mg/kg/injection, schedule: Q04DX002 (ip), vehicle: saline 91 % of control | [4] 89 % of control | dose: 200.0 mg/kg/injection, schedule: Q04DX002 (ip), vehicle: saline 94 % of control

Cc1ccc(-n2c(=S)[nH]c3ccccc3c2=O)cc1F
inactive: [5] 94 % of control | [6] 93 % of control | dose: 400.0 mg/kg/injection, schedule: Q04DX003 (ip), vehicle: saline with Tween-80 89 % of control

C(=C(CC1CCC1)CC1CCC1)C1CCC1
inactive: [7] 96 % of control | [8] 90 % of control

COC1OCC(O)C(N)C1O (stereo not drawn)
inactive: [9] 102 % of control and 95 % of control | [10] 102 % of control and 104 % of control and 106 % of control | [11] 87 % of control and 98 % of control and 92 % of control

CCN(CC)CCN(CC(=O)O)CC(=O)O
inactive: [9] 108 % of control and 98 % of control | [10] 90 % of control and 102 % of control | [11] 96 % of control and 102 % of control

Cc1ccccc1OCC(=O)Nc1ccc(-c2ccc(NC(=O)COc3ccccc3C)cc2)cc1
inactive: dose: 100.0 mg/kg/injection, schedule: Q04DX002 (ip), vehicle: gum acacia 92 % of control | dose: 200.0 mg/kg/injection, schedule: Q04DX002 (ip), vehicle: gum acacia 95 % of control | dose: 400.0 mg/kg/injection, schedule: Q04DX002 (ip), vehicle: gum acacia 100 % of control

NC(=O)NCc1ccccc1
inactive: [9] 105 % of control | [10] 97 % of control | [11] 103 % of control

O=C(COCC(=O)N/N=C/c1ccc(Cl)cc1Cl)N/N=C\c1cc(Cl)cc(Cl)c1
inactive: [1] 93 % of control | [2] 88 % of control

CCCN(CCC)CCCCCCO
inactive: [5] 94 % of control | [6] 96 % of control

N#CC(CCO)(CCO)c1ccccc1
inactive: [1] 101 % of control | [2] 97 % of control | [12] 105 % of control

CN(C)C(=O)CCl
inactive: [3] 96 % of control | [4] 98 % of control | dose: 400.0 mg/kg/injection, schedule: Q01DX009 (ip), vehicle: saline 104 % of control

N#Cc1cccc2c(/C=N\NC(N)=S)nccc12
inactive: dose: 100.0 mg/kg/injection, schedule: Q04DX002 (ip), vehicle: Klucel (hydroxypropylcellulose) (HPC) 106 % of control | dose: 200.0 mg/kg/injection, schedule: Q04DX002 (ip), vehicle: Klucel (hydroxypropylcellulose) (HPC) 95 % of control | dose: 400.0 mg/kg/injection, schedule: Q04DX002 (ip), vehicle: Klucel (hydroxypropylcellulose) (HPC) 87 % of control

O=C(CNC(=O)c1ccccc1)N/N=C/c1cccc([N+](=O)[O-])c1
inactive: [13] 95 % of control | [14] 90 % of control | [15] 88 % of control

CS(=O)(=O)OCCN(CCOS(C)(=O)=O)c1cccc(F)c1
inactive: dose: 5.0 mg/kg/injection, schedule: Q01DX001 (ip), vehicle: saline 98 % of control and 113 % of control | dose: 9.0 mg/kg/injection, schedule: Q01DX001 (ip), vehicle: saline 98 % of control | dose: 10.0 mg/kg/injection, schedule: Q01DX001 (ip), vehicle: saline 100 % of control | dose: 13.0 mg/kg/injection, schedule: Q01DX001 (ip), vehicle: saline 96 % of control | dose: 30.0 mg/kg/injection, schedule: Q01DX001 (ip), vehicle: saline 97 % of control | dose: 40.0 mg/kg/injection, schedule: Q01DX001 (ip), vehicle: saline 100 % of control | [16] 103 % of control | dose: 80.0 mg/kg/injection, schedule: Q01DX001 (ip), vehicle: saline 98 % of control and 87 % of control | [9] 105 % of control | [10] 121 % of control

CC1(C)C2CCC1(C)C2C=O (stereo not drawn)
inactive: [1] 96 % of control | [2] 93 % of control | [12] 96 % of control

NNC(=O)Cc1csc2ccccc12
inactive: dose: 55.5 mg/kg/injection, schedule: Q01DX Z (ip), vehicle: carboxymethylcellulose (CMC) 102 % of control | dose: 83.3 mg/kg/injection, schedule: Q01DX Z (ip), vehicle: carboxymethylcellulose (CMC) 114 % of control | dose: 125.0 mg/kg/injection, schedule: Q01DX Z (ip), vehicle: carboxymethylcellulose (CMC) 119 % of control

Cc1ccc(C(=O)NC(N)=O)cc1
inactive: [1] 101 % of control | [2] 95 % of control

CC1(C)C2CCC1(C)C(Oc1ccccc1)C2 (stereo not drawn)
inactive: [15] 100 % of control | dose: 200.0 mg/kg/injection, schedule: Q01DX009 (ip), vehicle: saline with Tween-80 98 % of control

Nc1ccc(S(=O)(=O)c2cc(O)c3ccccc3c2O)cc1
inactive: dose: 12.5 mg/kg/injection, schedule: Q01DX009 (ip), vehicle: saline 91 % of control | dose: 12.5 mg/kg/injection, schedule: Q04DX003 (ip), vehicle: Klucel (hydroxypropylcellulose) (HPC) 103 % of control | dose: 25.0 mg/kg/injection, schedule: Q01DX009 (ip), vehicle: saline 91 % of control | dose: 25.0 mg/kg/injection, schedule: Q04DX003 (ip), vehicle: Klucel (hydroxypropylcellulose) (HPC) 102 % of control | dose: 50.0 mg/kg/injection, schedule: Q04DX003 (ip), vehicle: Klucel (hydroxypropylcellulose) (HPC) 92 % of control

CC1=CC(=O)C(C(=O)CC(O)(C(F)(F)F)C(F)(F)F)C(=O)O1 (stereo not drawn)
inactive: dose: 12.5 mg/kg/injection, schedule: Q01DX009 (ip), vehicle: saline with Tween-80 92 % of control | [13] 103 % of control | [14] 88 % of control

Cc1c(C)c([N+](=O)[O-])c(I)c(C)c1[N+](=O)[O-]
inactive: dose: 75.0 mg/kg/injection, schedule: Q01DX009 (ip), vehicle: Klucel (hydroxypropylcellulose) (HPC) 98 % of control | dose: 75.0 mg/kg/injection, schedule: Q04DX003 (ip), vehicle: Klucel (hydroxypropylcellulose) (HPC) 102 % of control | [17] 98 % of control | dose: 150.0 mg/kg/injection, schedule: Q04DX003 (ip), vehicle: Klucel (hydroxypropylcellulose) (HPC) 102 % of control | dose: 300.0 mg/kg/injection, schedule: Q01DX009 (ip), vehicle: Klucel (hydroxypropylcellulose) (HPC) 97 % of control | dose: 300.0 mg/kg/injection, schedule: Q04DX003 (ip), vehicle: Klucel (hydroxypropylcellulose) (HPC) 98 % of control

CCOC(=O)C1C2/C=C/CCCCC21 (stereo not drawn)
inactive: [7] 105 % of control | [8] 112 % of control | dose: 400.0 mg/kg/injection, schedule: Q04DX002 (ip), vehicle: saline with Tween-80 98 % of control

CN=NNc1ccc(C)cc1
inactive: dose: 25.0 mg/kg/injection, schedule: Q01DX009 (ip), vehicle: Klucel (hydroxypropylcellulose) (HPC) 89 % of control | [16] 108 % of control | dose: 50.0 mg/kg/injection, schedule: Q01DX009 (ip), vehicle: Klucel (hydroxypropylcellulose) (HPC) 105 % of control and 117 % of control | [9] 108 % of control | [1] 102 % of control and 120 % of control | [17] 113 % of control | [10] 116 % of control | [2] 99 % of control and 91 % of control

CCN(CC)Cc1cc(-n2cnc3c(Cl)ncnc32)ccc1O
inactive: dose: 6.25 mg/kg/injection, schedule: Q04DX003 (ip), vehicle: saline 101 % of control | dose: 12.5 mg/kg/injection, schedule: Q04DX003 (ip), vehicle: saline 103 % of control | dose: 25.0 mg/kg/injection, schedule: Q04DX003 (ip), vehicle: saline 96 % of control

N#CCCN(C(=S)Nc1ccc(Cl)c(Cl)c1)C1CCCCC1
inactive: [1] 107 % of control | [2] 113 % of control | [12] 103 % of control

Clc1nnc(NC2CCCCC2)c(Cl)c1Cl
inactive: [1] 102 % of control | [18] 91 % of control | [2] 102 % of control | [19] 91 % of control | [12] 110 % of control | [20] 92 % of control

COC(=O)CN(c1c(C)cc(C)c(N)c1C)S(=O)(=O)c1ccccc1
inactive: dose: 100.0 mg/kg/injection, schedule: Q01DX001 (ip), vehicle: Klucel (hydroxypropylcellulose) (HPC) 95 % of control | [18] 96 % of control | dose: 200.0 mg/kg/injection, schedule: Q01DX001 (ip), vehicle: Klucel (hydroxypropylcellulose) (HPC) 103 % of control | [19] 100 % of control | dose: 400.0 mg/kg/injection, schedule: Q01DX001 (ip), vehicle: Klucel (hydroxypropylcellulose) (HPC) 97 % of control | [20] 107 % of control

Source: PubChem BioAssay AID248 (DTP/NCI, 2004)
